Here are results for one compound from patent US10280174B2, “Salt of fused pyrimidine compound and crystal thereof” (TAIHO PHARMACEUTICAL CO., LTD., priority 2015, dated 2019).

The subject of assay [1] is mouse collagen-induced arthritis model. The assay is described as follows: Mice collagen-induced arthritis model. The assay is classed as in vivo, DBA/1 mice. As to conditions: 0.381 mg/kg, oral, 1 time per day, 17 days; FIG. 11. The protocol: The test was carried out in accordance with the method described in Non-Patent Literature (Brand D D, et al., Nat Protoc. 2007; 2, 1269-1275, Xu D. et al., JPET, 2012 April; 341 (1):90-103). Seven-week-old male/DBA/1 mice (CHARLES RIVER LABORATORIES JAPAN, INC.) were intracutaneously injected in the dorsum with 100 μL/body of an equal amount-mixed solution (emulsion) of 4 mg/mL of bovine type 2 collagen solution (Collagen Research Center) and Complete Freund's Adjuvant (DIFCO Inc.) (initial immunization). After 21 days therefrom, the mice were intracutaneously injected in the chine with 100 μL/body of an equal amount-mixed solution (emulsion) of 4 mg/mL of bovine type 2 collagen solution (Collagen Research Center) and Complete Freund's Adjuvant (DIFCO) to provide an additional immunization. The oral administration of 1 time per day was continued for 17 days setting the administration initiation day (day 0) as the eighth day from the additional immunization. Symptoms of arthritis in day 0, day 3, day 7, day 10, day 14 and day 17 were scored macroscopically (0: No change, 1: Swelling of a finger, 2: Swelling of two fingers or more, 3: Swelling of instep, 4: Swelling of all fingers extending wrist/ankle), and a total in four limbs was obtained as a point of individual body (maximum 16 points).

Assay [2] has as its system recombinant human EGFR protein / BTK. The assay is described as follows: BTK inhibition selectivity compared with EGFR kinase inhibitory activity (in vitro). The assay is classed as biochemical. On the procedure: 1) Measurement of BTK Inhibitory Activity
2) Measurement of EGFR Inhibitory Activity
Therefore, a biotinated peptide (biotin-[…]) was produced by referring to the amino acid sequence of the peptide. The purified recombinant human EGFR protein used in the test was purchased from Carna Biosciences, Inc.
The reaction was terminated by adding EDTA thereto so as to obtain a final concentration of 24 mM. Subsequently, a detection liquid containing Eu-labeled anti-phosphotyrosine antibody PT66 (PerkinElmer, Inc.) and […] APC-SA (PerkinElmer, Inc.) was added thereto, and the system was left to stand for 2 hours or longer at room temperature. […] 3) BTK Inhibition Selectivity

As for `C=CC(=O)N1CCC[C@@H](n2nc(C(=O)Nc3nc4ccccc4o3)c3c(N)ncnc32)C1.O=C(O)/C=C/C(=O)O` [monofumarate of Compound A, (R)-1-(1-acryloylpiperidin-3-yl)-4-amino-N-(benzo[d]oxazol-2-yl)-1H-pyrazolo[3,4-d]pyrimidine-3-carboxamide.monofumarate], the arthritis score result in assay [1] was “lowered the arthritis score effectively”. The “BTK inhibition selectivity against EGFR kinase relative to Comparative compound 1” value in assay [2] (in vitro kinase) is “about 13 times”. In addition, in assay [2] (selectivity ratio), the “EGFR inhibitory activity IC50 value (nM)/BTK inhibitory activity IC50 value (nM)” value is reported as 16.90.
